# Measurements from article PMC3785365 (Clinical cancer research : an official journal of the …, 2011).
# pIC50: −log10 of the molar value.
# Columns and labels:
# [1] = tested on: phosphorylation of S6 and 4E-BP1; test: Western blot of mTOR signaling; assay type: cell-based, human; conditions: glioma cells
# KDR = KDR (Homo sapiens, UniProt P35968); test: Biochemical kinase assay, KDR
# PDK1 = target: T1, PDK1 (Homo sapiens, UniProt O15530); test: Biochemical kinase assay, PDK1
# T1 sequence (O15530 1-556): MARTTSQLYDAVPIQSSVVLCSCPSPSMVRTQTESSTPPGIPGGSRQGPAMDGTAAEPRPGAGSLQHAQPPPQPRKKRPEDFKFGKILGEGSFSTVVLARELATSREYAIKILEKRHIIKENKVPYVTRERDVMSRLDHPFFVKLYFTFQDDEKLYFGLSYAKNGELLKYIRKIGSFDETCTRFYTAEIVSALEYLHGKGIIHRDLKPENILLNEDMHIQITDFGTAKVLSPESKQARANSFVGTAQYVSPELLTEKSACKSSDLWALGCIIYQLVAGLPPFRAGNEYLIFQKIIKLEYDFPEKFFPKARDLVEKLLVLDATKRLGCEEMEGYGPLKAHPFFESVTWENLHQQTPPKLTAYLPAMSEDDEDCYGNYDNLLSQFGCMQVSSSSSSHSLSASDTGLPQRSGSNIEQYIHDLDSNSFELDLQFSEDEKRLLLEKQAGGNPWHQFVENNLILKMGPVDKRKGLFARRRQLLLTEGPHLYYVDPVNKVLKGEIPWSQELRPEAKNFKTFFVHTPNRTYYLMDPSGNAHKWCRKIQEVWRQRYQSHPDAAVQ
# c-Met = c-Met (Homo sapiens, UniProt P08581); test: Biochemical kinase assay, c-Met
# FGFR3 = FGFR3 (Homo sapiens, UniProt P22607); test: Biochemical kinase assay, FGFR3
# Tek = Tek (Homo sapiens, UniProt Q02763); test: Biochemical kinase assay, Tek
# U87 cells = test: Mitotic index; assay type: cell-based, human; conditions: U87 (p53-wt); 2 μm, 72 hours; control cells 1% to 3%
# D54 cells = test: Mitotic index; assay type: cell-based, human; conditions: D54 (p53-wt); 2 μm, 72 hours; control cells 1% to 3%
# U343 cells = test: Mitotic index; assay type: cell-based, human; conditions: U343 (p53-wt); 2 μm, 72 hours; control cells 1% to 3%
# U251 cells = test: Mitotic index; assay type: cell-based, human; conditions: U251 (p53-mutant/deleted); 2 μm, 72 hours; control cells 1% to 3%
# LN18 cells = test: Mitotic index; assay type: cell-based, human; conditions: LN18 (p53-mutant/deleted); 2 μm, 72 hours; control cells 1% to 3%
# LN229 cells = test: Mitotic index; assay type: cell-based, human; conditions: LN229 (p53-mutant/deleted); 2 μm, 72 hours; control cells 1% to 3%
# [2] = tested on: U87 intracranial xenografts; test: Intracranial U87 glioma xenograft survival model; assay type: in vivo; conditions: nude mice, control 26 days
# [3] = Tolerability in treated tumor-bearing mice; assay type: in vivo; conditions: 20 or 40 mg/kg oral
# glioma cell lines = test: Annexin V apoptosis assay by flow cytometry; conditions: 72 hours
# phosphorylation of Akt = test: Inhibition of Akt phosphorylation by immunoblot in U87MG and LN18 cells; conditions: Homo sapiens, read-out: IC50 for inhibiting phosphorylation of Akt
# P110α = P110α (Homo sapiens, UniProt P42336); conditions: cited from earlier work
# p110γ = conditions: cited from earlier work
# p110δ = conditions: cited from earlier work
# Sequence of P110α (P42336 whole entry): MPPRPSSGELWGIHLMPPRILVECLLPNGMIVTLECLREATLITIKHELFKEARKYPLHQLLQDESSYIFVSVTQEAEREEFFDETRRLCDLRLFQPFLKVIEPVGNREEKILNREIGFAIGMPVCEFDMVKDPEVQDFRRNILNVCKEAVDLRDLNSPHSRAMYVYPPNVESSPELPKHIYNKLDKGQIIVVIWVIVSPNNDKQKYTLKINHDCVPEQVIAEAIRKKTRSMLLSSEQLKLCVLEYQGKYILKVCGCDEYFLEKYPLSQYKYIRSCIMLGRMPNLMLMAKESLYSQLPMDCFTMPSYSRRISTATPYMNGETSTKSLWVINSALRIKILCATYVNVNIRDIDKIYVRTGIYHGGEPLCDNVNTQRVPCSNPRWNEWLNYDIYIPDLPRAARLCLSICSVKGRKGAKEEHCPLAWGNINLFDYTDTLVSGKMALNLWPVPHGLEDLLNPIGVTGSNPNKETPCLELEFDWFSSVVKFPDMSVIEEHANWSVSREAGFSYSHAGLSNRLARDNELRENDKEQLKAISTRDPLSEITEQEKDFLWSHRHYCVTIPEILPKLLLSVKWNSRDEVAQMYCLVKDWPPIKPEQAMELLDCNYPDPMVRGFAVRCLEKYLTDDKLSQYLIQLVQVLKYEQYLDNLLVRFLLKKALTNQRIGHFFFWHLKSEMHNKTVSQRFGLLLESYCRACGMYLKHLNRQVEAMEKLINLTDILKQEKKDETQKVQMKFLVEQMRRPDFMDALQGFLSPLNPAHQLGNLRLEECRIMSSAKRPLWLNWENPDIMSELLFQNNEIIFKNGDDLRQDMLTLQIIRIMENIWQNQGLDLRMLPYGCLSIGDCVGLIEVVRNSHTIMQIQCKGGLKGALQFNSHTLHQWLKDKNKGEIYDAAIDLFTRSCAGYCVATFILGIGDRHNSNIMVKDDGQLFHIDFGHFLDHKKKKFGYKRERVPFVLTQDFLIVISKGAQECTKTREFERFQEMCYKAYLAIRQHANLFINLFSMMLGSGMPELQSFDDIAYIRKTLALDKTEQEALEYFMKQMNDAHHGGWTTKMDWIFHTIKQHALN
# Sequence of P110α (P27986 whole entry partner): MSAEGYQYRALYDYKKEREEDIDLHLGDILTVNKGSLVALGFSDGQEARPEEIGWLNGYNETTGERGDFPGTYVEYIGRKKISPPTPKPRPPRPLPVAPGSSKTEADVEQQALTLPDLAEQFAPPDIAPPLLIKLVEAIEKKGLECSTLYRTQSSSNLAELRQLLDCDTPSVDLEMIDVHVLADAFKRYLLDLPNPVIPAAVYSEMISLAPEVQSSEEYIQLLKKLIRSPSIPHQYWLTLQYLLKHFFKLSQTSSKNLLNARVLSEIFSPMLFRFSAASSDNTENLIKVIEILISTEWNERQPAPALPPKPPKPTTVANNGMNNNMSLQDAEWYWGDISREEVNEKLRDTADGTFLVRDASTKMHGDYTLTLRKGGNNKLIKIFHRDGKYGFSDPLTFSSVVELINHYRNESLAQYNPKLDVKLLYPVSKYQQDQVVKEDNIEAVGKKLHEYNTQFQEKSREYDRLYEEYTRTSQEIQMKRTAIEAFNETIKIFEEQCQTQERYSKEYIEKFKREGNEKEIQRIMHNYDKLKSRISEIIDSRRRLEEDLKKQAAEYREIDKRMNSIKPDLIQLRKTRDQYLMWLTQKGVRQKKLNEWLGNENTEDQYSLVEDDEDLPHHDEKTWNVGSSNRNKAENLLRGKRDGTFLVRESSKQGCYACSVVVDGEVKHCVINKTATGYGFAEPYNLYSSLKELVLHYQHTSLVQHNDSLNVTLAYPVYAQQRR
# Sequence of c-Met (P08581 25-1390): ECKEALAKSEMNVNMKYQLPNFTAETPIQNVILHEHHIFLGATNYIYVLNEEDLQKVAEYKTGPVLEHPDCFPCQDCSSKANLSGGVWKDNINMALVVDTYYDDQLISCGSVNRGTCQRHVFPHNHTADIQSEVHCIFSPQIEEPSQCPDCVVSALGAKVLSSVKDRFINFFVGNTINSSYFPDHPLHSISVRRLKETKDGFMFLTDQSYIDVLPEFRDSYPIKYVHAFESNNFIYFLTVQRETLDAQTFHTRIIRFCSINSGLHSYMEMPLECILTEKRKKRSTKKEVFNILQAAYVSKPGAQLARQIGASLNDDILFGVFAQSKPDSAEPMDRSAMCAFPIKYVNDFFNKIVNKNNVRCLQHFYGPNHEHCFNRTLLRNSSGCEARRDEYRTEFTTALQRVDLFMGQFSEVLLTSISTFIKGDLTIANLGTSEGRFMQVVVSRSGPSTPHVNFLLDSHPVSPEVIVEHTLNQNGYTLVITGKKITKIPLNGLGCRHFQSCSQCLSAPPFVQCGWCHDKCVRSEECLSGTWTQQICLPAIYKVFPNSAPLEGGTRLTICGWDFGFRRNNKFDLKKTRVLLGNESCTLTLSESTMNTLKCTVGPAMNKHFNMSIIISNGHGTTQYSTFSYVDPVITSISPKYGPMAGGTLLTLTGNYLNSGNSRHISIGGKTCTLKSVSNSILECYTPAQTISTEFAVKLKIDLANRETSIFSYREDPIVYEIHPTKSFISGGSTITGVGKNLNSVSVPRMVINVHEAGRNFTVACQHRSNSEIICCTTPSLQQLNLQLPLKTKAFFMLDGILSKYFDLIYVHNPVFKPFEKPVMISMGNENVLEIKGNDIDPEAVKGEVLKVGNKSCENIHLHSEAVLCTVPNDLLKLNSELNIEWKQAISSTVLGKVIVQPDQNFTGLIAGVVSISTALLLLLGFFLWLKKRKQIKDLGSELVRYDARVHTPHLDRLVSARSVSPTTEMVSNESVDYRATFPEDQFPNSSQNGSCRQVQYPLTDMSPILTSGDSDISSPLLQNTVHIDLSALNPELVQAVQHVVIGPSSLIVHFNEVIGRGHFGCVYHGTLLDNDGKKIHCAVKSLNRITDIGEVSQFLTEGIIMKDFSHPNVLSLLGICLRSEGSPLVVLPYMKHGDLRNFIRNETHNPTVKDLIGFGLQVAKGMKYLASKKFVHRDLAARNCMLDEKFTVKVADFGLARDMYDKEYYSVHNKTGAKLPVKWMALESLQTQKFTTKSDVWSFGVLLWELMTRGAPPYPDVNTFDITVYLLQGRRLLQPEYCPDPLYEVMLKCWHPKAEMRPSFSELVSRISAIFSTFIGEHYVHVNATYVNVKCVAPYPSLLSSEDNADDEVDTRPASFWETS
# Sequence of FGFR3 (P22607 23-806, species assumed): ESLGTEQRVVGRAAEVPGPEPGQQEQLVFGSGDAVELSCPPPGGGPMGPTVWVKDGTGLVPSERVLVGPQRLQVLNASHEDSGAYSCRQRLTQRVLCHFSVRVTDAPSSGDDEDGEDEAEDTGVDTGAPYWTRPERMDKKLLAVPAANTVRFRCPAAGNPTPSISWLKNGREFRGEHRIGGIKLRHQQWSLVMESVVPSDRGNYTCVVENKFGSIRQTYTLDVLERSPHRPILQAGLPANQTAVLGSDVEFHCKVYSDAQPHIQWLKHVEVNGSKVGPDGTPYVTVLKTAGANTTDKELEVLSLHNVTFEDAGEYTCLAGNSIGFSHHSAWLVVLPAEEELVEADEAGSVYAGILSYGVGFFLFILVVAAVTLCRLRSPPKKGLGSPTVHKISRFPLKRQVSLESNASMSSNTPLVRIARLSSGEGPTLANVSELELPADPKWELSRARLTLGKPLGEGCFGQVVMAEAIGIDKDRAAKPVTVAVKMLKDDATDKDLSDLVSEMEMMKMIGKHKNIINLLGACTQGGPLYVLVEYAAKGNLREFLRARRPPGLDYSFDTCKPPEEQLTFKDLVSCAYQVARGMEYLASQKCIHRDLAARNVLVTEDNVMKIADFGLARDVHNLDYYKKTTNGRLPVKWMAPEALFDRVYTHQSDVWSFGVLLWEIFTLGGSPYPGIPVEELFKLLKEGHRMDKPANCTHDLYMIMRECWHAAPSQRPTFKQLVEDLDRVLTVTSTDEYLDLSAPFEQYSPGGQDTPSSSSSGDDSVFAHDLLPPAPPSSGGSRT
# Sequence of Tek (Q02763 23-1124, species assumed): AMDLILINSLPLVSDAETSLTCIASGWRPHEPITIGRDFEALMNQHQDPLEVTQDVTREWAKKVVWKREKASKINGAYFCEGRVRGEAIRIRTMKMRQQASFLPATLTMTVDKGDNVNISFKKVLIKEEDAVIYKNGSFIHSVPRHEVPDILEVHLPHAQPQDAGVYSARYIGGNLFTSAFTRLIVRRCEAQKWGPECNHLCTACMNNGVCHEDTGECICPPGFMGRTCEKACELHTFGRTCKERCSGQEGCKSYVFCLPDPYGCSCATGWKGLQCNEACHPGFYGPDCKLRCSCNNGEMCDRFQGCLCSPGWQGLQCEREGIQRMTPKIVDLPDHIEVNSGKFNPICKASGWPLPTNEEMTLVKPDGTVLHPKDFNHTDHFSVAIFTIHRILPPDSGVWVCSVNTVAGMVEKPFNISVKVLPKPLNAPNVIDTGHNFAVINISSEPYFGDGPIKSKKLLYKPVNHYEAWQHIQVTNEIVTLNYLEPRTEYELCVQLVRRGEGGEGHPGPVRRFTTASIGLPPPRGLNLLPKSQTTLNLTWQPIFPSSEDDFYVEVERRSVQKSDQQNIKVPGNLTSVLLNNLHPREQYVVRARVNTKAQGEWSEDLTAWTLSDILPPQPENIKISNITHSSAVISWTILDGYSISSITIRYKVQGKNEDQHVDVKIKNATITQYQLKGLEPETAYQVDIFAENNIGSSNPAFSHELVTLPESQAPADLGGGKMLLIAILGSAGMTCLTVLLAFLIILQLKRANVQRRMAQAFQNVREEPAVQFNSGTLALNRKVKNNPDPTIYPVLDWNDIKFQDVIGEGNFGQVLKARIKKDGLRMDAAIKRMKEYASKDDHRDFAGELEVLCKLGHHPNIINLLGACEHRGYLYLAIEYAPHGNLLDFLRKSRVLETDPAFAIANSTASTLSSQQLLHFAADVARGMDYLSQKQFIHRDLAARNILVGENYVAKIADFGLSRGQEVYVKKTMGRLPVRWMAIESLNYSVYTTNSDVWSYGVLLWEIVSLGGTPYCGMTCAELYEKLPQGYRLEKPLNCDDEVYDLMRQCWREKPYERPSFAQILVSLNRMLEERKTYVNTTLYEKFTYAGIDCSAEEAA
smiles,measurement,setting,value
"Cn1c(=O)n(-c2ccc(C(C)(C)C#N)cc2)c2c3cc(-c4cnc5ccccc5c4)ccc3ncc21 [NVP-BEZ235, reference compound]",effect on phosphorylation of S6 and 4E-BP1,[1],nearly complete dephosphorylation of both S6 and 4E-BP1
Nc1cc(C(F)(F)F)c(-c2cc(N3CCOCC3)nc(N3CCOCC3)n2)cn1 [NVP-BKM120],pIC50,KDR,< 5.00
same,pIC50,PDK1,< 5.00
same,pIC50,c-Met,< 5.00
same,pIC50,FGFR3,< 5.00
same,pIC50,Tek,< 5.00
same,cells in mitosis (phospho-H3 positive) after treatment,U87 cells,2.6%
same,cells in mitosis (phospho-H3 positive) after treatment,D54 cells,2.8%
same,cells in mitosis (phospho-H3 positive) after treatment,U343 cells,3%
same,cells in mitosis (phospho-H3 positive) after treatment,U251 cells,12.4%
same,cells in mitosis (phospho-H3 positive) after treatment,LN18 cells,7.3%
same,cells in mitosis (phospho-H3 positive) after treatment,LN229 cells,7.9%
same,median survival time,[2]; 20 mg/kg oral,38 days
same,median survival time,[2]; 40 mg/kg oral,48 days
same,"adverse effects with respect to body weight, water intake, and general activity",[3],no obvious signs of adverse effects
same,effect on phosphorylation of S6 and 4E-BP1,[1],minor dephosphorylation only of the S6 protein
same,change of the percentage of apoptosis (Annexin V),glioma cell lines; p53-mutant/deleted cell lines,3.98%
same,change of the percentage of apoptosis (Annexin V),glioma cell lines; p53-wt cell lines,14.52%
same,pIC50,phosphorylation of Akt,6.00 to 6.30
C=CCN(/C=C1/C(=O)O[C@H](COC)[C@@]2(C)C1=C(O)C(=O)C1=C2[C@H](OC(C)=O)C[C@]2(C)C(=O)CC[C@@H]12)CC=C [PX-866],IC50,P110α,low nanomolar range
same,IC50,p110γ,low nanomolar range
same,IC50,p110δ,low nanomolar range
